Reference: patent US10202351B2, “Pyrazolyl derivatives as pest control agents” (BAYER ANIMAL HEALTH GMBH, priority 2015, dated 2019)

Key:
Boophilus microplus = Boophilus microplus injection test; type: in vivo; conditions: application rate 20 μg/animal, after 7 days, laying of fertile eggs
Description: Solvent: dimethyl sulfoxide […] The animals are transferred into dishes and kept in a climate-controlled room. Efficacy is assessed after 7 days by laying of fertile eggs. Eggs which are not visibly fertile are stored in a climate-controlled cabinet until the larvae hatch after about 42 days.

Ctenocephalides felis [1] = assay: Ctenocephalides felis oral test; type: in vivo; conditions: application rate 100 ppm in citrated cattle blood, kill after 2 days
Text: Solvent: dimethyl sulfoxide […] Dilution with citrated cattle blood gives the desired concentration. About 20 unfed adult cat fleas (Ctenocephalides felis) are placed into a chamber which is closed at the top and bottom with gauze. A metal cylinder whose bottom end is closed with parafilm is placed onto the chamber. The cylinder contains the blood/active ingredient formulation, which can be imbibed by the fleas through the parafilm membrane.

Lucilia cuprina = Lucilia cuprina test; type: in vivo; conditions: application rate 100 ppm, L1 larvae, kill after 2 days
Description: (§1) Solvent: dimethyl sulfoxide
(§2) To produce a suitable preparation of active compound, 10 mg of active compound are mixed with 0.5 ml of dimethyl sulfoxide, and the concentrate is diluted with water to the desired concentration.
About 20 L1 larvae of the Australian sheep blowfly (Lucilia cuprina) are transferred into a test vessel containing minced horsemeat and the active compound formulation of the desired concentration.
After 2 days, the kill in % is determined. 100% means that all the larvae have been killed; 0% means that no larvae have been killed.

Musca domestica = Musca domestica test; type: in vivo; conditions: application rate 100 ppm, adult houseflies, kill after 2 days
Description: as §1, §2
Vessels containing a sponge treated with sugar solution and the active ingredient formulation of the desired concentration are populated with 10 adult houseflies (Musca domestica)).
After 2 days, the kill in % is determined. 100% means that all of the flies have been killed; 0% means that none of the flies have been killed.

Phaedon cochleariae = Phaedon cochleariae spray test; type: in vivo; conditions: larvae on Chinese cabbage leaf discs, after 7 days
Description: (§3) Solvent: 78.0 parts by weight of acetone • • 1.5 parts by weight of dimethylformamide Emulsifier: alkylaryl polyglycol ether […] To produce further test concentrations, the formulation is diluted with emulsifier-containing water. Discs of Chinese cabbage leaves (Brassica pekinensis) are sprayed with an active ingredient formulation of the desired concentration and, after drying, populated with larvae of the mustard beetle (Phaedon cochleariae).

Spodoptera frugiperda = Spodoptera frugiperda spray test; type: in vivo; conditions: application rate 100 g/ha, caterpillars on maize leaf discs, after 7 days
Description: as §3, with “Leaf discs” for “Discs”, “maize (Zea mays)” for “Chinese cabbage leaves (Brassica pekinensis)”, “compound” for “ingredient”, “caterpillars” for “larvae”, “armyworm (Spodoptera frugiperda).” for “mustard beetle (Phaedon cochleariae).”

Tetranychus urticae = Tetranychus urticae spray test, OP-resistant; type: in vivo; conditions: all stages on bean leaf discs, after 6 days
Description: Solvent: 78.0 parts by weight of acetone • • 1.5 parts by weight of dimethylformamide Emulsifier: alkylaryl polyglycol ether […] To produce further test concentrations, the formulation is diluted with emulsifier-containing water. Discs of bean leaves (Phaseolus vulgaris) infested with all stages of the greenhouse red spider mite (Tetranychus urticae) are sprayed with an active ingredient formulation of the desired concentration.

[2] = logP determination by HPLC on reversed-phase column (EEC Directive 79/831 Annex V.A8); type: physicochemical
Ctenocephalides felis [3] = assay: Ctenocephalides felis in vitro contact test with adult cat fleas; type: in vivo; conditions: application rate 5 μg/cm^2 (500 g/ha), after 48 h, dead or moribund fleas
Description: After the solvent has evaporated off, the tubes are populated with 5-10 adult cat fleas (Ctenocephalides felis), sealed with a perforated plastic lid and incubated in a horizontal position at room temperature and ambient humidity. After 48 h, efficacy is determined. To this end, the tubes are stood upright and the fleas are knocked to the base of the tube. Fleas which remain motionless at the base or move in an uncoordinated manner are considered to be dead or moribund.

[4] = Table 3 intermediates, HPLC C18, acetonitrile/water with formic acid
[5] = Table 1, HPLC C18, acetonitrile/water with formic acid

Row | SMILES | efficacy (Boophilus microplus) [%] | efficacy (Ctenocephalides felis [1]) [%] | efficacy (Lucilia cuprina) [%] | efficacy (Musca domestica) [%] | efficacy (Phaedon cochleariae; application rate 100 g/ha) [%] | efficacy (Spodoptera frugiperda) [%] | efficacy (Tetranychus urticae; application rate 100 g/ha) [%] | lgP [2, 4] | lgP ([2]; synthesis example) | lgP [2, 5] | efficacy (Ctenocephalides felis [3]) [%] | efficacy (Phaedon cochleariae; application rate 500 g/ha) [%] | efficacy (Tetranychus urticae; application rate 500 g/ha) [%]
1 | COc1cc(C(=O)Nc2cc(-c3cnn(-c4c(Cl)cc(C(F)(C(F)(F)F)C(F)(F)F)cc4Cl)c3)ccc2F)ccc1F [Example 22] | 100 | 100 | 100 | 100 | 100 | 100 | 100 |  |  |  |  |  | 
2 | Cc1cc(C(F)(C(F)(F)F)C(F)(F)F)cc(C)c1-n1cc(-c2ccc(Cl)c(N)c2)cn1 [III-7, 2-chloro-5-[1-[2,6-dimethyl-4-[1,2,2,2-tetrafluoro-1-(trifluoromethyl)ethyl]phenyl]pyrazol-4-yl]aniline] |  |  |  |  |  |  |  | lgP 4.93 | 4.93 |  |  |  | 
3 | Cc1cc(C(F)(C(F)(F)F)C(F)(F)F)cc(C(F)(F)F)c1-n1cc(-c2cc(NC(=O)c3ccnc(F)c3)ccc2F)cn1 [Example 2-1] | 100 | 95 | 98 | 100 | 100 | 100 | 90 |  |  |  |  |  | 
4 | Cc1cc(C(F)(C(F)(F)F)C(F)(F)F)cc(C)c1-n1cc(-c2ccc(Cl)c(NC(=O)c3ccccc3F)c2)cn1 [Example 10] | 100 |  |  |  |  |  |  |  |  | lgP 6.06 |  |  | 
5 | Nc1cccc(-c2cnn(-c3c(Cl)cc(C(F)(F)F)cc3Cl)c2)c1 [III-1] |  |  |  |  |  |  |  | lgP 2.90 |  |  |  |  | 
6 | Cc1cc(C(F)(C(F)(F)F)C(F)(F)F)cc(C)c1-n1cc(-c2ccnc(NC(=O)c3ccc(F)cc3)c2)cn1 [Example 14] | 80 |  |  |  |  |  |  |  |  | lgP 4.69 |  |  | 
7 | O=C(Nc1cc(-c2cnn(-c3c(Cl)cc(C(F)(C(F)(F)F)C(F)(F)F)cc3Cl)c2)cnc1F)c1ccncc1 [Example 19] | 100 | 100 | 100 | 100 | 100 | 100 | 100 |  |  |  | 100 |  | 
8 | Cc1cc(C(F)(C(F)(F)F)C(F)(F)F)cc(C)c1-n1cc(-c2ccc(N(C)C)c(NC(=O)c3ccncc3)c2)cn1 [Example 20] | 100 | 100 |  | 90 | 100 | 100 | 100 |  |  |  | 100 |  | 
9 | Cc1cc(C(F)(C(F)(F)F)C(F)(F)F)cc(C)c1-n1cc(-c2ccc(Cl)c([N+](=O)[O-])c2)cn1 [II-7, 4-(4-chloro-3-nitrophenyl)-1-[2,6-dimethyl-4-[1,2,2,2-tetrafluoro-1-(trifluoromethyl)ethyl]phenyl]pyrazole] |  |  |  |  |  |  |  | lgP 5.39 | 5.39 |  |  |  | 
10 | Cc1cc(C(F)(C(F)(F)F)C(F)(F)F)cc(C)c1-n1cc(-c2cccc(N)c2F)cn1 [III-10] |  |  |  |  |  |  |  | lgP 4.61 |  |  |  |  | 
11 | Cc1cc(C(F)(C(F)(F)F)C(F)(F)F)cc(C(F)(F)F)c1-n1cc(-c2ccc(F)c(NC(=O)c3ccc(F)nc3)c2)cn1 [Example 39] | 100 | 100 | 100 | 100 | 100 | 100 | 100 |  |  |  |  |  | 
12 | Cc1cc(C(F)(C(F)(F)F)C(F)(F)F)cc(C)c1-n1cc(-c2ccc(F)c(NC(=O)c3ccncc3)c2F)cn1 [Example 9] | 100 | 100 | 100 | 100 | 100 | 100 | 100 |  |  | lgP 3.92 |  |  | 
13 | Cc1cc(C(F)(C(F)(F)F)C(F)(F)F)cc(C(F)(F)F)c1-n1cc(-c2cccc(NC(=O)c3ccc(C#N)nc3)c2F)cn1 [Example 69] | 100 | 100 | 100 |  | 100 | 100 |  |  |  |  | 100 |  | 
14 | Cc1cc(C(F)(C(F)(F)F)C(F)(F)F)cc(C(F)(F)F)c1-n1cc(-c2ccc(F)c(NC(=O)C3CSC3)c2F)cn1 [Example 65] | 80 | 100 | 100 | 100 | 100 | 100 | 100 |  |  |  |  |  | 
15 | COc1cccc(C(=O)Nc2cc(-c3cnn(-c4c(C)cc(C(F)(C(F)(F)F)C(F)(F)F)cc4C(F)(F)F)c3)ccc2F)c1 [Example 32] | 100 | 100 | 100 | 90 | 100 | 100 |  |  |  |  | 100 |  | 
16 | Cc1cc(C(F)(C(F)(F)F)C(F)(F)F)cc(C)c1-n1cc(-c2cnc(Cl)c(NC(=O)C3(C#N)CC3)c2)cn1 [Example 13] | 100 | 100 | 90 | 80 |  | 83 |  |  |  | lgP 4.69 |  |  | 
17 | Cc1cc(C(F)(C(F)(F)F)C(F)(F)F)cc(C)c1-n1cc(-c2ccc(F)c(N)c2)cn1 [III-8] |  |  |  |  |  |  |  | lgP 4.47 |  |  |  |  | 
18 | O=C(Nc1cccc(-c2cnn(-c3c(Cl)cc(C(F)(F)F)cc3Cl)c2)c1)c1ccncc1 [Example 3] | 100 | 90 |  |  |  |  |  |  |  | lgP 3.2 |  | 100 | 90
19 | Cc1cc(C(F)(C(F)(F)F)C(F)(F)F)cc(C(F)(F)F)c1-n1cc(-c2ccc(F)c(NC(=O)c3ccc(C#N)nc3)c2)cn1 [Example 46] | 100 | 100 | 100 | 100 | 100 | 100 |  |  |  |  | 100 |  | 
20 | Cc1cc(C(F)(C(F)(F)F)C(F)(F)F)cc(C(F)(F)F)c1-n1cc(-c2ccc(F)c(N(C)C(=O)c3ccc(F)nc3)c2F)cn1 [Example 41] | 100 | 100 | 100 | 100 | 100 | 83 |  |  |  |  |  |  | 
21 | Cc1cc(C(F)(C(F)(F)F)C(F)(F)F)cc(C(F)(F)F)c1-n1cc(-c2cc(NC(=O)c3ccncc3)ccc2F)cn1 [Example 2-2] | 100 | 95 | 98 | 90 | 100 | 100 | 90 |  |  |  |  |  | 
22 | Cc1cc(C(F)(C(F)(F)F)C(F)(F)F)cc(C)c1-n1cc(-c2ccc(F)c(N)c2F)cn1 [III-9] |  |  |  |  |  |  |  | lgP 4.81 |  |  |  |  | 
23 | Cc1cc(C(F)(C(F)(F)F)C(F)(F)F)cc(C(F)(F)F)c1-n1cc(-c2ccc(F)c(NC(=O)C3(C)CC3)c2)cn1 [Example 30] | 100 | 100 | 100 | 100 | 100 | 100 |  |  |  |  | 100 |  | 
24 | O=[N+]([O-])c1cccc(-c2cnn(-c3c(Cl)cc(C(F)(F)F)cc3Cl)c2)c1 [II-1] |  |  |  |  |  |  |  | lgP 4.32 |  |  |  |  | 
25 | Cc1cc(C(F)(C(F)(F)F)C(F)(F)F)cc(C)c1-n1cc(-c2ccc(Cl)c(NC(=O)c3cccc(F)c3)c2)cn1 [Example 8] | 100 |  |  |  |  |  |  |  |  | lgP 5.59 |  |  | 
26 | Cc1cc(C(F)(C(F)(F)F)C(F)(F)F)cc(C(F)(F)F)c1-n1cc(-c2ccc(F)c(NC(=O)c3ccc(F)nc3)c2F)cn1 [Example 40] | 100 | 100 | 100 | 100 | 100 | 100 | 100 |  |  |  |  |  | 
